From ChEMBL document CHEMBL4334512, “Rationally Designed, Conformationally Constrained Inverse Agonists of RORγt-Identification of a Potent, Selective Series with Biologic-Like in Vivo Efficacy” (J Med Chem, 2019)

Legend:
[1] = Clearance in dog at 1 mg/kg, iv; format: ADME, organism-based, Canis lupus familiaris; conditions: in vivo
[2] = Half life in rat liver microsomes; format: ADME, Microsome
Mus musculus [3] = experiment: Suppression of IL-17F RNA expression in skin region of mouse model of IL-23 induced acanthosis model of psoriasis at 3 to 30 mg/kg, po BID for 10 days measured every other day; format: functional
Mus musculus [4] = experiment: Suppression of IL-17F RNA expression in skin region of mouse model of IL-23 induced acanthosis model of psoriasis at 10 mg/kg, po BID for 10 days measured every other day relative to control; format: functional; conditions: 240 h
[5] = target: T1, Oxysterols receptor LXR-alpha (Homo sapiens, UniProt Q13133); experiment: Agonist activity at LXRalpha (unknown origin) by Gal4-Luc reporter gene assay
T1 sequence (Q13133 whole entry): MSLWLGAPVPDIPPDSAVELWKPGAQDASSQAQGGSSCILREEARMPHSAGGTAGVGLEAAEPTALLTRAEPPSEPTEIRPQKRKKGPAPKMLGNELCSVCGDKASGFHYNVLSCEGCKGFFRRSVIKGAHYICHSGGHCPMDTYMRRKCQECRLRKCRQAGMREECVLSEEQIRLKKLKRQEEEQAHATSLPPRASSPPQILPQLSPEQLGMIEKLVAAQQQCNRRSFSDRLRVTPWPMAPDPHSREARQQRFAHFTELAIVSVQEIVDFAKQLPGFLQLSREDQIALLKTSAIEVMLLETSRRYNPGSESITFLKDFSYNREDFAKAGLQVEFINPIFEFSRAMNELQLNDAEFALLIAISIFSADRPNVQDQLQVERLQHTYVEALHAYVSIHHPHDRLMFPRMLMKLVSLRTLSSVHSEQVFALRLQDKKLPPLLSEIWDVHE

Mus musculus [6] = experiment: Suppression of ear thickness in mouse model of IL-23 induced acanthosis model of psoriasis at 10 mg/kg, po BID for 10 days measured every other day relative to anti-IL-23 positive control; format: functional
[7] = Unbound fraction in mouse serum; format: ADME, cell-free
[8] = target: T2, Nuclear receptor ROR-alpha (Homo sapiens, UniProt P35398); experiment: Agonist activity at RORalpha (unknown origin) by Gal4-Luc reporter gene assay
T2 sequence (P35398 whole entry): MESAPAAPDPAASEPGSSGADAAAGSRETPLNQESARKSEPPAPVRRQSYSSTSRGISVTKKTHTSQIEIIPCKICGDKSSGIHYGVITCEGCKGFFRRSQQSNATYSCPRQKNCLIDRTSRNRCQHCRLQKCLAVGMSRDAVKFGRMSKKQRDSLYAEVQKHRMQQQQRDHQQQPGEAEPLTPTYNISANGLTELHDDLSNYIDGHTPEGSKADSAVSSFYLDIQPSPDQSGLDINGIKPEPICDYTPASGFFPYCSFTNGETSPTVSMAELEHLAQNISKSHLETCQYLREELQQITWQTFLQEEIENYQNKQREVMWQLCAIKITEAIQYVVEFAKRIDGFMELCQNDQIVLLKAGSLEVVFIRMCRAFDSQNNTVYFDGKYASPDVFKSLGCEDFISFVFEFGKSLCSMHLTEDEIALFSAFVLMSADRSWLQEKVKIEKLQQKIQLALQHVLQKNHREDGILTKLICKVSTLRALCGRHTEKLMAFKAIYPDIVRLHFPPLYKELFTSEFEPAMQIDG

[9] = Volume of distribution at steady state in rat at 2 mg/kg, iv; format: ADME, organism-based; conditions: in vivo, read-out: Vdss
[10] = Half life in human liver microsomes; format: ADME, Microsome
[11] = Cmax in Balb/c mouse at 10 mg/kg, po; format: ADME, organism-based; set-up: dose 10 mg/kg, route oral; conditions: in vivo
[12] = Unbound fraction in human serum; format: ADME, cell-free
[13] = target: T3, Nuclear receptor ROR-beta (Homo sapiens, UniProt Q92753); experiment: Activity at RORbeta (unknown origin)
T3 sequence (Q92753 whole entry): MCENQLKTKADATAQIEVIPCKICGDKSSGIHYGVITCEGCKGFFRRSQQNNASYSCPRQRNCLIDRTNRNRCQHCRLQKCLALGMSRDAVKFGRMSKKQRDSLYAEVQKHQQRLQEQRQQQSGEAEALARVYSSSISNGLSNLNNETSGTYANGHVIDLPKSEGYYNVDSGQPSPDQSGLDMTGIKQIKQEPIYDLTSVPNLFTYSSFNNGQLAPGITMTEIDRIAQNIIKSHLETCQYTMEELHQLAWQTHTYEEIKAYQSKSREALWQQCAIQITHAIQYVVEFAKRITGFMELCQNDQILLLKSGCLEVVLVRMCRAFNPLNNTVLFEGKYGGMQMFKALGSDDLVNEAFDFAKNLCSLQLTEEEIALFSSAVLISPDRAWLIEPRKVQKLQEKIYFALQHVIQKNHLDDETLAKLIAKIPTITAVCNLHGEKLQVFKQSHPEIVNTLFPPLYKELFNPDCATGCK

[14] = target: T4, Oxysterols receptor LXR-beta (Homo sapiens, UniProt P55055); experiment: Agonist activity at LXRbeta (unknown origin) by Gal4-Luc reporter gene assay
T4 sequence (P55055 whole entry): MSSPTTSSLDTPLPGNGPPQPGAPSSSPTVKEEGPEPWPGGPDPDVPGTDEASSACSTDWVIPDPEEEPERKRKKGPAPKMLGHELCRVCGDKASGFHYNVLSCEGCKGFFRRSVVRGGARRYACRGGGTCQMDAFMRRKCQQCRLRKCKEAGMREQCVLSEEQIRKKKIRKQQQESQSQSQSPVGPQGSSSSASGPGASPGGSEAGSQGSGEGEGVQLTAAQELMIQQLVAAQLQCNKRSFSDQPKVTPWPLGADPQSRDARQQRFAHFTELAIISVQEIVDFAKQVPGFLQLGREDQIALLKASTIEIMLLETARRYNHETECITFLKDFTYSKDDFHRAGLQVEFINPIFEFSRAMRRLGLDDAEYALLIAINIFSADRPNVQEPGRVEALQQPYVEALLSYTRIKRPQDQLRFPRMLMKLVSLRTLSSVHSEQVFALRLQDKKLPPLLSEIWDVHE

[15] = Oral bioavailability in mouse at 4 mg/kg; format: ADME, organism-based; conditions: in vivo
[16] = target: T4, Oxysterols receptor LXR-beta; experiment: Activity at LXRbeta (unknown origin)
Mus musculus [17] = experiment: Suppression of IL-22 RNA expression in skin region of mouse model of IL-23 induced acanthosis model of psoriasis at 3 to 30 mg/kg, po BID for 10 days measured every other day; format: functional
[18] = target: T1, Oxysterols receptor LXR-alpha; experiment: Activity at LXRalpha (unknown origin)
Mus musculus [19] = experiment: Suppression of IL-22 RNA expression in skin region of mouse model of IL-23 induced acanthosis model of psoriasis at 3 mg/kg, po BID for 10 days measured every other day relative to control; format: functional; conditions: 240 h
[20] = Total AUC in mouse at 4 mg/kg, po; format: ADME, organism-based; set-up: dose 4 mg/kg, route oral, time AUCmax; conditions: in vivo
[21] = Half life in mouse at 2 mg/kg, iv; format: ADME, organism-based; conditions: in vivo
Mus musculus [22] = experiment: Suppression of ear thickness in mouse model of IL-23 induced acanthosis model of psoriasis at 30 mg/kg, po BID for 10 days measured every other day relative to anti-IL-23 positive control; format: functional
[23] = Clearance in mouse at 2 mg/kg, iv; format: ADME, organism-based; conditions: in vivo

Compound: O=C(N1CC[C@@]2(S(=O)(=O)c3ccc(F)cc3)c3ccc(C(F)(C(F)(F)F)C(F)(F)F)cc3CC[C@@H]12)C1(O)CCS(=O)(=O)CC1
- clearance [1]: 0.35 mL/min/kg
- half-life [2]: > 2 h
- Activity (Mus musculus [3]): Dose-dependent effect
- ED50 (Mus musculus [3]; 240 h): 3 mg/kg
- inhibition in vivo at 10 mg/kg (Mus musculus [4]): 69%
- EC50 [5]: > 7.5 µM
- Efficacy (Mus musculus [6]): 88%
- fraction unbound [7]: 0.007
- EC50 [8]: > 10 µM
- Vd [9]: 2.9 L/kg
- half-life [10]: > 2 h
- Cmax [11]: 2900 nM
- fraction unbound [12]: 0.011
- IC50 [13]: > 10 µM
- EC50 [14]: > 7.5 µM
- bioavailability [15]: 100%
- IC50 [16]: > 10 µM
- Activity (Mus musculus [17]): Dose-dependent effect
- ED50 (Mus musculus [17]; 240 h): 3 mg/kg
- IC50 [18]: > 10 µM
- inhibition in vivo at 3 mg/kg (Mus musculus [19]): 76%
- AUC [20]: 58.2 µM·h
- half-life [21]: 15 h
- Efficacy (Mus musculus [22]): 98%
- clearance [23]: 1.9 mL/min/kg
